Results on 66 molecules are retold here after US7550469B2, “Heterocyclic amide derivatives and their use as dopamine D3 receptor ligands” (Aventis Pharmaceuticals Inc., priority 2001, dated 2009).

T1 sequence (P35462 whole entry): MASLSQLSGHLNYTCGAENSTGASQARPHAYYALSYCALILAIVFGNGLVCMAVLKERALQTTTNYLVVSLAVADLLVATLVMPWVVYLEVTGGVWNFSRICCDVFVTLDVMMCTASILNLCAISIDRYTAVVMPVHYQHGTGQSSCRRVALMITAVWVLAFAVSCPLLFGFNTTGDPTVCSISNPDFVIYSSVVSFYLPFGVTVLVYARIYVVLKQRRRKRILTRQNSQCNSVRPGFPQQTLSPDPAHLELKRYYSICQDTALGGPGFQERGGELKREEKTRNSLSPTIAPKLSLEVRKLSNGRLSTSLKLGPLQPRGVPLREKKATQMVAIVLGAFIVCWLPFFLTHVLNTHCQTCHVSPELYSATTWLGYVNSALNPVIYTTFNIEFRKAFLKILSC

One assay addresses T1, cloned human dopamine D3 receptors (Homo sapiens, UniProt P35462).
T1 construct: expressed in transfected cells; membrane homogenate
The assay is described as follows: [N-Methyl-3H]Spiroperidol binding to cloned human dopamine D3 receptors (Protocol 1). The conditions noted are these: read-out: D3K1. Summed up: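 Radioligand displacement with [N-methyl-3H]spiroperidol used a physiological-salt Tris buffer (0.05 M, pH 7.7; NaCl 120 mM, KCl 5 mM, CaCl2 2 mM, MgCl2 1 mM) and membranes of a high-expressing stable CHO clone carrying human D3. Total ligand concentration came from measured added CPM; 0.1% ascorbic acid was optional for oxidizable compounds.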
With `COc1ccc(C(=O)NCC2C(CN3CCN(c4csc5cc(C(F)(F)F)ccc45)CC3)C2(C)C)cc1OC` (stereo not drawn) [compound 826272], the Ki amounted to 0.062 µM.
For the molecule `CC1(C)C(CNC(=O)c2ccc(F)cc2)C1CN1CCN(c2csc3cc(C(F)(F)F)ccc23)CC1` (stereo not drawn) [compound 826273], the Ki came out at 0.051 µM.
Still for that read-out and setting: as for `CC1(C)C(CNC(=O)c2cccc(F)c2)C1CN1CCN(c2csc3cc(C(F)(F)F)ccc23)CC1` (stereo not drawn) [compound 826274], the figure is 0.067 µM; as for `CC1(C)C(CNC(=O)c2ccccc2)C1CN1CCN(c2csc3cc(C(F)(F)F)ccc23)CC1` (stereo not drawn) [compound 826275], 0.092 µM.
With `CC1(C)C(CNC(=O)c2cccs2)C1CN1CCN(c2csc3cc(C(F)(F)F)ccc23)CC1` (stereo not drawn) [compound 826276], the Ki was determined as 0.058 µM.
Same read-out and setting: as for `CC1(C)C(CNC(=O)c2ccc3ccccc3c2)C1CN1CCN(c2csc3cc(C(F)(F)F)ccc23)CC1` (stereo not drawn) [compound 826277], the figure is 0.0203 µM.
Still for that read-out and setting: next, `CC1(C)C(CNC(=O)c2cccc(C(F)(F)F)c2)C1CN1CCN(c2csc3cc(C(F)(F)F)ccc23)CC1` (stereo not drawn) [compound 826278]: 0.087 µM; `CC1(C)C(CNC(=O)c2cccc(C#N)c2)C1CN1CCN(c2csc3cc(C(F)(F)F)ccc23)CC1` (stereo not drawn) [compound 826280]: 0.116 µM; `CC1(C)C(CNC(=O)Cc2ccccc2)C1CN1CCN(c2csc3cc(C(F)(F)F)ccc23)CC1` (stereo not drawn) [compound 826281]: 0.0732 µM.
Still for that read-out and setting: next, `COc1ccc2[nH]c(C(=O)NC[C@@H]3CCCC[C@H]3CN3CCN(c4csc5cc(C(F)(F)F)ccc45)CC3)cc2c1` [compound 826284]: 0.077 µM; `O=C(NC[C@@H]1CCCC[C@H]1CN1CCN(c2csc3cc(C(F)(F)F)ccc23)CC1)c1cc2ccccc2[nH]1` [compound 826285]: 0.17 µM.
For `O=C(NCC1CCC1CN1CCN(c2csc3cc(C(F)(F)F)ccc23)CC1)c1cc2ccccc2[nH]1` (stereo not drawn) [compound 826290], the Ki is 0.072 µM.
Still for that read-out and setting: next, `COc1ccc2[nH]c(C(=O)NCC3CCC3CN3CCN(c4csc5cc(C(F)(F)F)ccc45)CC3)cc2c1` (stereo not drawn) [compound 826291]: 0.037 µM; `O=C(NCC1CCC1CN1CCN(c2csc3cc(C(F)(F)F)ccc23)CC1)c1cc2ccccc2s1` (stereo not drawn) [compound 826292]: 0.2 µM; `O=C(Cc1ccccc1)NCC1CCC1CN1CCN(c2csc3cc(C(F)(F)F)ccc23)CC1` (stereo not drawn) [compound 826293]: 0.24 µM.

The assay is the same for the next values; noted with them: the 13th table, unit inferred; read-out: D3Ki.
On to `COc1cccc(C(=O)NCCCCN2CCCN(c3csc4cc(F)ccc34)CC2)c1` [compound 822197], for which the Ki worked out at 0.0065 µM.
`Cc1ccccc1C(=O)NCCCCN1CCCN(c2csc3cc(F)ccc23)CC1` [compound 822199]: the Ki turned out to be 0.0038 µM.
On the same count and under the same terms, next, `O=C(NCCCCN1CCCN(c2csc3cc(F)ccc23)CC1)c1cnc2ccccc2n1` [compound 822200]: 0.0106 µM.
With `O=C(NCCCCN1CCCN(c2csc3cc(F)ccc23)CC1)c1cccnc1Cl` [compound 822201], the Ki came out at 0.015 µM.

Still in this assay, the particulars now being: the 18th table; read-out: D3 Ki.
As for `O=C(NCc1sccc1CN1CCN(c2csc3cc(F)ccc23)CC1)c1cccs1` [compound 826295], the Ki was determined as 0.046 µM.
As to `O=C(NCc1sccc1CN1CCN(c2csc3cc(F)ccc23)CC1)c1cccc(Cl)c1` [compound 826296], the Ki worked out at 0.106 µM.
Same read-out and setting: next, `COc1cc(OC)cc(C(=O)NCc2sccc2CN2CCN(c3csc4cc(F)ccc34)CC2)c1` [compound 826297]: 0.031 µM; `O=C(NCc1sccc1CN1CCN(c2csc3cc(F)ccc23)CC1)c1ccc(OC(F)(F)F)cc1` [compound 826298]: 0.059 µM; `O=C(NCc1sccc1CN1CCN(c2csc3cc(F)ccc23)CC1)c1cccc2ccccc12` [compound 826299]: 0.095 µM.
The same measure, in the same setting: as for `O=C(NCc1sccc1CN1CCN(c2csc3cc(F)ccc23)CC1)c1ccc2ccccc2c1` [compound 826300], the figure is 0.036 µM.
The same measure, in the same setting: next, `O=C(NCc1sccc1CN1CCN(c2csc3cc(F)ccc23)CC1)c1cccc(C(F)(F)F)c1` [compound 826301]: 0.094 µM.
As for `COc1ccccc1C(=O)NCc1sccc1CN1CCN(c2csc3cc(F)ccc23)CC1` [compound 826302], the Ki turned out to be 0.016 µM.
Still for that read-out and setting: as for `O=C(NCc1sccc1CN1CCN(c2csc3cc(F)ccc23)CC1)c1cccc(F)c1` [compound 826303], the figure is 0.064 µM; as for `O=C(NCc1sccc1CN1CCN(c2csc3cc(F)ccc23)CC1)c1ccc(F)cc1` [compound 826304], 0.084 µM.
The same measure, in the same setting: as for `COc1ccc(C(=O)NCc2sccc2CN2CCN(c3csc4cc(F)ccc34)CC2)cc1OC` [compound 826305], the figure is 0.03 µM; as for `Cc1ccccc1C(=O)NCc1sccc1CN1CCN(c2csc3cc(F)ccc23)CC1` [compound 826306], 0.089 µM.
The same measure, in the same setting: next, `COc1cccc(C(=O)NCc2sccc2CN2CCN(c3csc4cc(F)ccc34)CC2)c1` [compound 826307]: 0.047 µM; `O=C(NCc1sccc1CN1CCN(c2csc3cc(F)ccc23)CC1)c1ccc(-c2ccccc2)cc1` [compound 826308]: 0.206 µM.
On to `CC(C)(C)c1ccc(C(=O)NCc2sccc2CN2CCN(c3csc4cc(F)ccc34)CC2)cc1` [compound 826309], for which the Ki turned out to be 0.063 µM.
On the same count and under the same terms, next, `O=C(NCc1sccc1CN1CCN(c2csc3cc(F)ccc23)CC1)c1cnc2ccccc2n1` [compound 826310]: 0.203 µM; `O=C(NCc1sccc1CN1CCN(c2csc3cc(F)ccc23)CC1)c1ccc(C(F)(F)F)cc1` [compound 826311]: 0.074 µM.
Same read-out and setting: next, `O=C(NCc1sccc1CN1CCN(c2csc3cc(F)ccc23)CC1)c1ccncc1` [compound 826312]: 0.029 µM.
The same measure, in the same setting: as for `O=C(NCc1sccc1CN1CCN(c2csc3cc(F)ccc23)CC1)c1cccnc1Cl` [compound 826313], the figure is 0.134 µM; as for `O=C(NCc1sccc1CN1CCN(c2csc3cc(F)ccc23)CC1)c1cccc2cc[nH]c12` [compound 826314], 0.046 µM.

Staying with this assay, now noted: the 19th table; read-out: D3 Ki.
As to `O=C(Nc1ccc(CN2CCN(c3csc4cc(F)ccc34)CC2)cc1)c1ccccc1F` [compound 822207], the Ki came to 0.221 µM.
On the same count and under the same terms, as for `COc1ccc(C(=O)Nc2ccc(CN3CCN(c4csc5cc(F)ccc45)CC3)cc2)cc1OC` [compound 822208], the figure is 0.183 µM; as for `COc1cccc(C(=O)Nc2ccc(CN3CCN(c4csc5cc(F)ccc45)CC3)cc2)c1` [compound 822209], 0.36 µM.
Regarding `O=C(Nc1ccc(CN2CCN(c3csc4cc(F)ccc34)CC2)cc1)c1ccc(-c2ccccc2)cc1` [compound 822210], the Ki was 0.0395 µM.
Same read-out and setting: next, `Cc1ccccc1C(=O)Nc1ccc(CN2CCN(c3csc4cc(F)ccc34)CC2)cc1` [compound 822212]: 0.162 µM; `O=C(Nc1ccc(CN2CCN(c3csc4cc(F)ccc34)CC2)cc1)c1cccs1` [compound 822213]: 0.063 µM; `O=C(Nc1cccc(CN2CCN(c3csc4cc(F)ccc34)CC2)c1)c1ccsc1` [compound 825654]: 0.245 µM.
With `O=C(Nc1cccc(CN2CCN(c3csc4cc(F)ccc34)CC2)c1)c1ccc2[nH]nnc2c1` [compound 825656], the Ki came to 0.033 µM.

Staying with this assay, now noted: the 20th table; read-out: D3 Ki.
Turning to `COc1cc(OC)cc(C(=O)NCc2ccoc2CN2CCN(c3csc4cc(F)ccc34)CC2)c1` [compound 825837], the Ki is 0.19 µM.
On the same count and under the same terms, next, `O=C(NCc1ccoc1CN1CCN(c2csc3cc(F)ccc23)CC1)c1cccc(C(F)(F)F)c1` [compound 825841]: 0.146 µM; `COc1ccccc1C(=O)NCc1ccoc1CN1CCN(c2csc3cc(F)ccc23)CC1` [compound 825842]: 0.532 µM.
Still for that read-out and setting: next, `O=C(NCc1ccoc1CN1CCN(c2csc3cc(F)ccc23)CC1)c1cc2ccccc2s1` [compound 825844]: 0.601 µM; `O=C(NCc1ccoc1CN1CCN(c2csc3cc(F)ccc23)CC1)c1ccc(F)cc1` [compound 825845]: 0.206 µM; `O=C(NCc1ccoc1CN1CCN(c2csc3cc(F)ccc23)CC1)c1ccc(-c2ccccc2)cc1` [compound 825848]: 0.25 µM.
With `O=C(NCc1ccoc1CN1CCN(c2csc3cc(F)ccc23)CC1)c1cccnc1Cl` [compound 825853], the Ki worked out at 0.237 µM.

Still in this assay, the particulars now being: the 22nd table; read-out: D3 Ki.
As for `COc1ccccc1C(=O)NCCCCN1CCN(c2nn(C(=O)c3ccccc3OC)c3ccsc23)CC1` [compound 825145], the Ki stood at 0.174 µM.
Same read-out and setting: next, `Cc1ccccc1C(=O)NCCCCN1CCN(c2nn(C(=O)c3ccccc3C)c3ccsc23)CC1` [compound 825146]: 0.188 µM; `Cc1ccc(C(=O)NCCCCN2CCN(c3nn(C(=O)c4ccc(C)cc4)c4ccsc34)CC2)cc1` [compound 825147]: 0.0627 µM; `O=C(NCCCCN1CCN(c2nn(C(=O)c3ccc(F)cc3)c3ccsc23)CC1)c1ccc(F)cc1` [compound 825148]: 0.0364 µM.
Same read-out and setting: next, `O=C(NCCCCN1CCN(c2nn(C(=O)c3ccc(C(F)(F)F)cc3)c3ccsc23)CC1)c1ccc(C(F)(F)F)cc1` [compound 825149]: 0.164 µM; `O=C(NCCCCN1CCN(c2nn(C(=O)c3ccc(F)c(F)c3)c3ccsc23)CC1)c1ccc(F)c(F)c1` [compound 825150]: 0.199 µM; `O=C(NCCCCN1CCN(c2n[nH]c3ccsc23)CC1)c1ccc(-c2ccccc2)cc1` [compound 825153]: 0.00857 µM.
Still for that read-out and setting: next, `COc1ccccc1C(=O)NCCCCN1CCN(c2n[nH]c3ccsc23)CC1` [compound 825159]: 0.0921 µM.
In the case of `Cc1ccccc1C(=O)NCCCCN1CCN(c2n[nH]c3ccsc23)CC1` [compound 825161], the Ki stood at 0.244 µM.
On the same count and under the same terms, as for `O=C(NCCCCN1CCN(c2n[nH]c3ccsc23)CC1)c1ccc(F)cc1` [compound 825162], the figure is 0.114 µM.
Still for that read-out and setting: as for `O=C(NCCCCN1CCN(c2n[nH]c3ccsc23)CC1)c1ccc(F)c(F)c1` [compound 825163], the figure is 0.221 µM.
On to `O=C(NCCCCN1CCN(c2nn(C(=O)c3cc4ccccc4s3)c3ccsc23)CC1)c1cc2ccccc2s1` [compound 825164], for which the Ki worked out at 0.0104 µM.
